Reference: patent US7964587B2, “Tocopherol and tocotrienol aerosols” (Children's Hospital & Research Center at Oakland, priority 2002, dated 2011)
Like-named read-outs stand apart in the source and are kept apart here.

Columns and labels:
[1] = tested on: carrageenan-induced inflammation; assay: carrageenan-induced inflammation in the air-pouch model; format: in vivo, rat
Method: For this experimental protocol, we adapted the methods recited in the Experimental Example reported below. […] Formulations were administered as described below, wherein the recited tocopherol was dissolved in tocopherol-stripped corn oil, and continuously administrated by gavage for three days before the induction of inflammation. The PGE2 component of the formulation was empirically varied and adjusted to provide a minimized synergistic concentration. For example, aspirin formulations were adjusted to 50 or 100 mg/Kg with gamma-T at 30 mg/Kg. In controls evaluating the effects of aspim or gamma-T alone, we increased the aspririn dosage to 150 mg/Kg and gamma-T to […], respectively.
Gamma-CEHC was quantified essentially as previously described (13).
For the measurement of PGE2, LTB4 and 8-isoprostane, the exudate fluid was mixed vigorously with 2 mL methanol to precipitate proteins, and with 5 mL hexane to remove lipids. Following a brief centrifugation and aspiration of the hexane layer, the methanol layer was removed and evaporated under N2. PGE2, LTB4 and 8-isoprostane were measured using the corresponding ELISA kits from Cayman Chemicals (Ann Arbor, Mich.). TNF-a and lactate dehydrogenase (LDH) in the exudate were measured directly using an ELISA kit from R&D (Minneapolis, Minn.) and an analytical kit from Roche (Indianapolis, Ind.), respectively.
The total amount of nitrate and nitrite in the exudate was measured using the Model 280 nitric oxide analyzer (NOA™) (Sievers Instruments, Inc.; Boulder, Colo.). Nitrite and nitrate in the exudate were reduced by vanadium (III) to nitric oxide, which then was measured by a red-sensitive photomultiplier tube after being converted by ozone to chemiluminescent reactive nitrogen dioxide. Nitrite and nitrate were quantified based on a standard curve from nitrate that was established under the identical conditions.
Carrageenan-induced inflammation in the air-pouch model is commonly used to evaluate the pharmaceutical potency of anti-inflammatory drugs (14). […] These cells play a key role in the inflammatory response (11, 14, 15). A single injection of carrageenan caused a potent localized inflammation, as indicated by a marked increase in white cell infiltration, eicosanoid formation and tissue damages (11). To study the effect of gamma-CEHC on eicosanoid synthesis and neutrophil infiltration, it (1 mg/ml, 2 ml in PBS) was injected directly into the air pouch right before the injection of carrageenan. Since the retention of gamma-CEHC is relatively short (16), its effect was evaluated at 6 h after the induction of inflammation.
To test the effects of tocopherols, alpha-T or gamma-T, dissolved in tocopherol-stripped corn oil, was continuously administrated by gavage for three days before the induction of inflammation. Effects were evaluated at 20 h after carrageenan injection, when cell infiltration had reached a maximum in the pouch.

PGE2 = assay: inhibition of PGE2, apparent IC50s of vitamin E forms; format: cell-based; conditions: for inhibitory effect on PGE2: e.g. ref. 10
[2] = plasma and exudate concentrations of alpha-T, gamma-T and gamma-CEHC in the air-pouch model; conditions: for gamma-T concentration in the collected exudate: 20-h after carrageenan
Method: Carrageenan-induced inflammation in the air-pouch model was performed and evaluated substantially as previously described (14). Alpha-T and gamma-T were measured in plasma and exudate as previously described (12). Gamma-CEHC was quantified essentially as previously described (13).
To evaluate the relative bio-availability of the administrated compounds, we measured plasma and exudate concentrations of gamma-T and alpha-T as well as plasma gamma-CEHC.

[3] = tested on: carrageenan-induced inflammation; conditions: cited from earlier work
[4] = tested on: lung epithelial cancer cells; assay: anti-proliferative effect on lung cancer cells; format: cell-based, human
[5] = cited from earlier work
normal epithelial cells = assay: effect on normal epithelial cells; format: cell-based
[6] = tested on: human prostate epithelial cancer cells; assay: anti-proliferative effect on prostate cancer cells; format: cell-based
[7] = 1 mg/ml, 2 ml in PBS injected into the air pouch, 6 h
[8] = 33 mg/kg by gavage for three days, 20 h after carrageenan, P<0.05

Cc1c(C)c2c(c(C)c1O)CC[C@@](C)(CCC[C@H](C)CCC[C@H](C)CCCC(C)C)O2 [alpha-T, alpha-tocopherol, reference compound]
effects on generation of eicosanoids and 8-isoprostane ([1]; 33 mg/kg): did not show any significant effects | inhibitory effect on PGE2 (PGE2): weak to no inhibitory effect | increased alpha-T level in the plasma and exudate ([2]; 33 mg/kg alpha-T): approximately 2 fold | decrease of gamma-T in the exudate caused by alpha-T administration ([2]; P<0.05): 40% | decrease of gamma-T in the plasma caused by alpha-T administration ([2]; P<0.05): ~55%

CC(=O)Oc1ccccc1C(=O)O [aspirin, Acetylsalicylic acid]
neutrophil infiltration ([3]; doses of 100-150 mg/kg): did not affect | reduction of PGE2 ([3]; doses of 100-150 mg/kg): 50-70% | cell infiltration ([3]; higher doses, >200-300 mg/kg): inhibits cell infiltration

Cc1cc(O)c(C)c2c1O[C@](C)(CCC[C@H](C)CCC[C@H](C)CCCC(C)C)CC2 [beta-T, beta-tocopherol, reference compound]
inhibitory effect on PGE2 (PGE2): weak to no inhibitory effect

Cc1cc(O)cc2c1O[C@](C)(CCC[C@H](C)CCC[C@H](C)CCCC(C)C)CC2 [delta-T, Delta-tocopherol]
IC50 (PGE2): 2.5 to 5 µM

Cc1c(O)cc2c(c1C)OC(C)(CCC(=O)O)CC2 (centres unmarked) [gamma-CEHC, 2,7,8-trimethyl-2-(b-carboxyethyl)-6-hydroxychroman]
inhibition of LTB4 [1, 7]: inhibited LTB4 and neutrophil infiltration, though non-significantly | inhibition of neutrophil infiltration [1, 7]: inhibited LTB4 and neutrophil infiltration, though non-significantly | reduction of PGE2 in the pouch ([1]; 1 mg/ml, 2 ml in PBS injected into the air pouch, 6 h after induction, P<0.05): ~29% | plasma concentration of gamma-CEHC ([2]; rat, in vivo): Nano-molar concentrations | plasma gamma-CEHC level relative to plasma gamma-T ([2]; rat, in vivo): less than 10%

Cc1c(O)cc2c(c1C)O[C@](C)(CCC[C@H](C)CCC[C@H](C)CCCC(C)C)CC2 [gamma-T, gamma-tocopherol]
effect on total nitrate and nitrite ([1]; 33 mg/kg): had no effect | reduction of LTB4 [1, 8]: 70% | reduction of PGE2 [1, 8]: 46% | reduction of 8-isoprostane in the pouch (lipid peroxidation) ([1]; 33 mg/kg, P<0.05): ~57% | attenuation of the loss of food consumption ([1]; 33 mg/kg, non-significant, P=0.2): 20% | inhibition of TNF-a ([1]; 33 mg/kg, non-significant, P=0.29): ~51% | inhibitory potency against PGE2 ([1]; 100 mg/kg by gavage for three days, 20 h, P<0.05): 51% | attenuation of the loss of food consumption ([1]; 100 mg/kg, P<0.03): 30% | reduction of 8-isoprostane in the pouch (lipid peroxidation) ([1]; 100 mg/kg, P<0.05): ~57% | lowering of LDH (cytotoxicity and tissue damage marker) ([1]; 100 mg/kg, P=0.067): 30% | reduction of TNF-a ([1]; 100 mg/kg, P=0.069): 65% | reduction of total nitrite and nitrate ([1]; 100 mg/kg, P=0.1): 40% | neutrophil infiltration ([1]; gavage 33 or 100 mg/kg, 20 h): did not affect | anti-proliferative effect [4]: showed anti-proliferative effects | fraction of gamma-T converted to gamma-CEHC [5]: ≤ 50% | effect on normal epithelial cells (normal epithelial cells): had no effect | anti-proliferative effect [6]: showed anti-proliferative effects | IC50 (PGE2): 5 to 10 µM | elevation of gamma-T in exudate fluid vs corn-oil fed controls ([2]; 33 mg/kg): ~10 fold | gamma-T concentration in exudate, corresponding molar concentration ([2]; 33 mg/kg): ~10 µM | increase of gamma-T in the plasma vs corn-oil fed controls ([2]; 33 mg/kg): 3 fold | ratio of gamma-T to alpha-T in the exudate ([2]; 33 mg/kg gamma-T): ~0.3 | gamma-T concentration in the collected exudate ([2]; 33 mg/kg): 93.3 nmol/gprotein | elevation of gamma-T in exudate fluid vs corn-oil fed controls ([2]; 100 mg/kg): ~20 fold | gamma-T concentration in exudate, corresponding molar concentration ([2]; 100 mg/kg): ~20 µM | increase of gamma-T in the plasma vs corn-oil fed controls ([2]; 100 mg/kg): 5 fold | ratio of gamma-T to alpha-T in the exudate ([2]; 100 mg/kg gamma-T): ~0.7 | gamma-T concentration in the collected exudate ([2]; 100 mg/kg): 193 nmol/gprotein | ratio of gamma-T to alpha-T in the plasma ([2]; 33 or 100 mg/kg gamma-T): ~0.15 | effect of gamma-T administration on alpha-T levels ([2]; rat, in vivo): did not significantly affect

CC(C)=CCC/C(C)=C/CC/C(C)=C/CC[C@]1(C)CCc2cc(O)c(C)c(C)c2O1 [gamma-tocotrienol]
IC50 (PGE2): 1 to 2.5 µM

alpha-tocotrienol [reference compound]
inhibitory effect on PGE2 (PGE2): weak to no inhibitory effect
